Source: patent US8716184B2, “Herbicidal composition comprising the hydrates of saflufenacil and glyphosate or glufosinate” (Bayer Cropscience AG, priority 2010, dated 2014)

Legend:
Format in all cases: in vivo
Digitaria sanguinalis = test: Herbicidal action on Digitaria sanguinalis (Table 1)
Description: (§1) The herbicidal efficacy of the active compounds or active compound mixtures was scored visually by comparing the treated pots (soil) with untreated controls. The damage and development of all above-ground plant parts was recorded. Scoring was done on a percentage scale (example values: 100% action=all plants dead or not emerged; 50% action=50% of the plants and green plant parts dead or not emerged; 0% action=no discernible action=like control plot). The score figures of in any case 2 repetitions (pots) were averaged.
(§2) When applying the combinations according to the invention, herbicidal effects are frequently observed on a harmful plant species which exceed the formal total of the effects of the herbicides present when these are applied by themselves. Alternatively, it is observed in some cases that a lower application rate is required for the herbicide combination in order to achieve the same effect on a harmful plant species in comparison with the individual products. […] When the data observed already exceed the formal total of the data in the experiments with individual applications, they likewise exceed the expected value according to Colby, which is calculated using the formula below and is likewise regarded as an indication of synergism (cf. S. R. Colby; in Weeds 15 (1967) pp. 20 to 22): E=A+B−(A·B/100)

Cirsium Arvense = test: Herbicidal action on Cirsium arvense (Table 2a)
Description: as §1, §2

Bidens pinata = test: Herbicidal action on Bidens pinata (Table 3)
Description: as §1, §2

Setaria faberii = test: Herbicidal action, monocotyledonous weeds, Setaria faberii (Table 2c); details: applied at 1-2 leaf stage, scoring 28 days after application
Description: as §1
(§3) Seeds or rhizome pieces of monocotyledonous and dicotyledonous weeds are placed in sandy loam in pots, covered with soil and grown in the greenhouse under good growth conditions (temperature, atmospheric humidity, water supply). […] The compositions according to the invention, formulated as wettable powders or emulsion concentrates, are sprayed onto the green plant parts in various dosages using an application rate of 300 to 800 L of water/ha (converted). After the test plants have remained in the greenhouse under optimum growth conditions for about 3 to 4 weeks, the effect of the preparations is scored visually in comparison with untreated controls (scoring as in Example 1). The compositions according to the invention also have good herbicidal post-emergence action against a broad spectrum of economically important weed grasses and broad-leaf weeds. […]

Setaria viridis = test: Herbicidal action, monocotyledonous weeds, Setaria viridis (Table 2c); details: applied at 1-2 leaf stage, scoring 28 days after application
Description: as §1, §3

Abutilon teophrastis = test: Herbicidal action, dicotyledonous weeds, Abutilon teophrastis (Table 2b); details: applied at 2-3 leaf stage, scoring 28 days after application
Description: as §1
(§4) Seeds or rhizome pieces of monocotyledonous and dicotyledonous weeds are placed in sandy loam in pots, covered with soil and grown in the greenhouse under good growth conditions (temperature, atmospheric humidity, water supply). Three weeks after sowing, the test plants are treated in the three-leaf stage with the compositions according to the invention. The compositions according to the invention, formulated as wettable powders or emulsion concentrates, are sprayed onto the green plant parts in various dosages using an application rate of 300 to 800 L of water/ha (converted). After the test plants have remained in the greenhouse under optimum growth conditions for about 3 to 4 weeks, the effect of the preparations is scored visually in comparison with untreated controls (scoring as in Example 1). […]

Xanthium strumarium = test: Herbicidal action, dicotyledonous weeds, Xanthium strumarium (Table 2b); details: applied at 2-3 leaf stage, scoring 28 days after application
Description: as §1, §4

Euphorbia heterophylla = test: Herbicidal action, dicotyledonous weeds, Euphorbia heterophylla (Table 2b); details: applied at 2-3 leaf stage, scoring 28 days after application
Description: as §1, §4

CC(C)N(C)S(=O)(=O)NC(=O)c1cc(-n2c(=O)cc(C(F)(F)F)n(C)c2=O)c(F)cc1Cl [Compound of the formula (I) (amorphous), 2-chloro-5-[3,6-dihydro-3-methyl-2,6-dioxo-4-(trifluoromethyl)-1-(2H)-pyrimidinyl]-4-fluoro-N-[[methyl-(1-methylethyl)amino]sulfonyl]benzamide]
Herbicidal action [%] on Digitaria sanguinalis (Digitaria sanguinalis; dose 25 g AS/ha): 0% | Herbicidal action [%] Cirsium Arvense (Cirsium Arvense; dose 25 g AS/ha): 55%

CP(=O)(O)CCC(N)C(=O)O (centres unmarked) [Glufosinate-ammonium (A2a), glufosinate-ammonium]
Herbicidal action [%] on Digitaria sanguinalis (Digitaria sanguinalis; dose 450 g AS/ha): 15%

CC(C)N.O=C(O)CNCP(=O)(O)O [Glyphosate-isopropylammonium (A1b), glyphosate-isopropylammonium]
Herbicidal action [%] Bidens pinata (Bidens pinata; dose 100 g AS/ha): 10% | Herbicidal action [%] Setaria faberii (Setaria faberii; dose 100 g AS/ha): 10% | Herbicidal action [%] Setaria viridis (Setaria viridis; dose 100 g AS/ha): 20% | Herbicidal action [%] Cirsium Arvense (Cirsium Arvense; dose 675 g AS/ha): 25% | Herbicidal action [%] Abutilon teophrastis (Abutilon teophrastis; dose 100 g AS/ha): 10% | Herbicidal action [%] Xanthium strumarium (Xanthium strumarium; dose 100 g AS/ha): 10% | Herbicidal action [%] Euphorbia heterophylla (Euphorbia heterophylla; dose 100 g AS/ha): 10%

CC(C)N(C)S(=O)(=O)NC(=O)c1cc(-n2c(=O)cc(C(F)(F)F)n(C)c2=O)c(F)cc1Cl [Hydrate of the compound of the formula (I) = (Ba)] [2-chloro-5-[3,6-dihydro-3-methyl-2,6-dioxo-4-(trifluoromethyl)-1-(2H)-pyrimidinyl]-4-fluoro-N-[[methyl-(1-methylethyl)amino]sulfonyl]benzamide]
Herbicidal action [%] Bidens pinata (Bidens pinata; dose 6.25 g AS/ha): 40% | Herbicidal action [%] Setaria faberii (Setaria faberii; dose 6.25 g AS/ha): 30% | Herbicidal action [%] on Digitaria sanguinalis (Digitaria sanguinalis; dose 25 g AS/ha): 0% | Herbicidal action [%] Setaria viridis (Setaria viridis; dose 6.25 g AS/ha): 25% | Herbicidal action [%] Cirsium Arvense (Cirsium Arvense; dose 25 g AS/ha): 45% | Herbicidal action [%] Abutilon teophrastis (Abutilon teophrastis; dose 6.25 g AS/ha): 75% | Herbicidal action [%] Xanthium strumarium (Xanthium strumarium; dose 6.25 g AS/ha): 30% | Herbicidal action [%] Euphorbia heterophylla (Euphorbia heterophylla; dose 6.25 g AS/ha): 30%

COCc1cnc(C2=NC(C)(C(C)C)C(=O)N2)c(C(=O)O)c1 (centres unmarked) [Imazamox (C18), imazamox]
Herbicidal action [%] Bidens pinata (Bidens pinata; dose 0.5 g AS/ha): 0% | Herbicidal action [%] Bidens pinata (Bidens pinata; dose 0.5 g AS/ha, listed as imazamox (C18)): no herbicidal action
